This is an account of results in patent publication US20090220445A1, “HAIR CARE COMPOSITIONS AND METHODS FOR INCREASING HAIR DIAMETER AND DELIVERING ADDITIONAL BENEFITS” (priority 2008, published 2009).

This assay has as its system Primary human dermal papilla cells. In words: Synergy study: survival of metabolically stressed dermal papilla cells (ATP, Cell Titer Glo). In kind it is cell-based. Conditions: cells metabolically stressed 48 hours in reduced media, control 100% water. On the procedure:
The dermal papilla, in normal human hair, is the control center for hair diameter. Increasing survival of dermal papilla cells in situ leads to increased hair diameter. Accordingly, an increase in survival of dermal papilla cells correlates with an increase in hair diameter.
Primary human dermal papilla cells were metabolically stressed for 48 hours in reduced standard tissue culture media. During this period of stress the cells were treated with the mixtures or individual ingredients below. After 48 hr the metabolic activity of the cells was measured by the amount of ATP using the Cell Titer Glo™ kit (Promega).
(In general: In ATP-based viability assays light output follows the ATP content of the culture.)

For `CC(C)(CO)[C@@H](O)C(=O)NCCCO` [Panthenol], the “Survival rate: % Change from Control” value (0.15%) is “+6%”.
Turning to `Cn1c(=O)c2c(ncn2C)n(C)c1=O` [Caffeine], under “0.05%”, the “Survival rate: % Change from Control” value is “+41%”.
With `NC(=O)c1cccnc1` [Niacinamide], under “0.006%”, the “Survival rate: % Change from Control” value is given as −8%.
